Measurements: patent US20080269202A1, “Novel 2,3-benzodiazepine derivatives and their use as antipsychotic agents” (Teva Pharmaceutical Industries Ltd., priority 2007, published 2008)

Row | SMILES | melting point
1 | CNC(=O)N1N=C(c2cccc(Cl)c2)c2cc(OC)c(OC)cc2CC1C (stereo not shown) | 90 to 91 °C
2 | COc1cc2c(cc1OC)C(c1ccc([N+](=O)[O-])cc1)=NN(c1nnc(C)o1)C(C)C2 (stereo not shown) [Example 30] | 177 to 178 °C
3 | CNC(=O)N1N=C(c2ccccc2N)c2cc(OC)c(OC)cc2CC1C (racemic) | 88 to 91 °C
4 | COc1cc2c(cc1OC)C(c1ccc(N)c(C)c1)=NN(c1nncs1)C(C)C2 (racemic) [Example 147] | 108 to 110 °C
5 | COc1cc2c(cc1OC)C(c1ccc([N+](=O)[O-])c(C)c1)=NN(c1noc(C)n1)C(C)C2 (stereo not shown) [Example 47] | 206 to 208 °C
6 | COc1cc2c(cc1OC)C(c1ccc(NC(C)=O)cc1)=NN(c1nccs1)C(C)C2 (stereo not shown) [Example 181] | 130 to 134 °C
7 | COc1ccc(C2=NN(c3ncon3)C(C)Cc3cc(OC)c(OC)cc32)cc1OC (stereo not shown) [Example 53] | 188 to 189 °C
8 | COc1cc2c(cc1OC)C(c1ccc([N+](=O)[O-])cc1)=NN(c1nc(C)c(C)s1)C(C)C2 (stereo not shown) [Example 9] | 190 to 192 °C
9 | CCOc1cc2c(cc1OCC)C(c1ccc(N)cc1)=NN(c1nncs1)C(C)C2 (racemic) [Example 149] | 108 to 113 °C
10 | COc1cc2c(cc1OC)C(c1cccc(Cl)c1)=NN(c1nncs1)C(C)C2 (stereo not shown) [Example 23] | 86 to 88 °C
11 | COc1cc2c(cc1OC)C(c1ccc(N)cc1)=NN(c1nc(C)nn1C)C(C)C2 (racemic) [Example 167] | 113 to 115 °C
12 | COc1cc2c(cc1OC)C(c1ccc([N+](=O)[O-])cc1)=NN(c1nc(C)cs1)C(C)C2 (stereo not shown) [Example 6] | 194 to 195 °C
13 | COc1cc2c(cc1OC)C(c1ccc(N)cc1)=NN(c1ncc(C)o1)C(C)C2 (racemic) [Example 161] | 103 to 107 °C
14 | CNC(=O)N1N=C(c2ccc(N)cc2)c2cc(OC)c(OC)cc2CC1C (racemic) | 105 to 107 °C
15 | COc1cc2c(cc1OC)C(c1ccc([N+](=O)[O-])c(C)c1)=NN(c1nncs1)C(C)C2 (stereo not shown) [Example 20] | 192 to 195 °C
16 | CNC(=O)N1N=C(c2ccc([N+](=O)[O-])c(Cl)c2)c2cc(OC)c(OC)cc2CC1C (stereo not shown) [76] | 195 to 197 °C
17 | COc1cc2c(cc1OC)C(c1ccc(N)cc1)=NN(c1ncn[nH]1)C(C)C2 (racemic) [Example 162] | 152 to 155 °C
18 | COc1cc2c(cc1OC)C(c1ccc([N+](=O)[O-])cc1)=NN(c1nccs1)C(C)C2 (stereo not shown) [Example 1] | 195 to 197 °C
19 | COc1cc2c(cc1OC)C(c1ccc(N)c(C)c1)=NN(c1nccs1)[C@H](C)C2 [Example 114] | 116 to 118 °C
20 | COc1cc2c(cc1OC)C(c1ccc(N)cc1)=NN(C1=NCCO1)C(C)C2 (racemic) [Example 153] | 135 to 137 °C
21 | CNC(=S)N1N=C(c2ccc(N)cc2)c2cc(OC)c(OC)cc2CC1C (racemic) | 235 to 237 °C
22 | COc1cc2c(cc1OC)C(c1ccc(NC(C)=O)cc1)=NN(c1nncs1)C(C)C2 (stereo not shown) [Example 187] | 150 to 151 °C
23 | COc1cc2c(cc1OC)C(c1ccc(N)c(C)c1)=NN(C(=O)NC(C)C)[C@H](C)C2 | 115 to 117 °C
24 | COc1cc2c(cc1OC)C(c1ccc([N+](=O)[O-])cc1)=NN(c1nnc(C)s1)C(C)C2 (stereo not shown) [Example 27] | 228 to 229 °C
25 | COc1cc2c(cc1OC)C(c1ccc(N)c(C)c1)=NN(c1nccs1)C(C)C2 (racemic) [Example 140] | 109 to 113 °C

Row | SMILES | melting point
26 | CNC(=O)N1N=C(c2ccc(N)c(C)c2)c2cc(OC)c(OC)cc2CC1C (racemic) | 119 to 122 °C
27 | CCc1nnc(N2N=C(c3ccc(N)cc3)c3cc(OC)c(OC)cc3CC2C)s1 (racemic) [Example 146] | 208 to 209 °C
28 | COc1cc2c(cc1OC)C(c1ccc(N)cc1)=NN(c1nccs1)C(C)C2 (racemic) [Example 136] | 119 to 122 °C
29 | COc1cc2c(cc1OC)C(c1ccc([N+](=O)[O-])c(Cl)c1)=NN(c1nncs1)C(C)C2 (stereo not shown) [Example 21] | 214 to 215 °C
30 | CNC(=O)N1N=C(c2ccc(N)c(Cl)c2)c2cc(OC)c(OC)cc2CC1C (racemic) | 119 to 120 °C
31 | CNC(=O)N1N=C(c2ccc(N)c(C)c2)c2cc(OC)c(OC)cc2C[C@@H]1C | 157 to 159 °C
32 | COc1cc2c(cc1OC)C(c1ccc(N)cc1)=NN(c1nncs1)C(C)C2 (racemic) [Example 144] | 152 to 153 °C
33 | CCNC(=O)N1N=C(c2ccc([N+](=O)[O-])cc2)c2cc(OC)c(OC)cc2CC1C (stereo not shown) [78] | 206 to 208 °C
34 | COc1cc2c(cc1OC)C(c1ccc(N)cc1)=NN(C1=NOCS1)[C@@H](C)C2 [Example 119] | 134 to 135 °C
35 | COc1cc2c(cc1OC)C(c1ccc(N)cc1)=NN(c1noc(C)n1)C(C)C2 (racemic) [Example 156] | 233 to 236 °C
36 | COc1cc2c(cc1OC)C(c1ccc([N+](=O)[O-])c(C)c1)=NN(c1nncs1)C(C)C2 (stereo not shown) [Example 19] | 195 to 196 °C
37 | COc1cc2c(cc1OC)C(c1ccc(Cl)cc1)=NN(c1ncon1)C(C)C2 (stereo not shown) [Example 49] | 210 to 212 °C
38 | COc1cc2c(cc1OC)C(c1ccc(N)cc1)=NN(C(=O)NC1CC1)[C@H](C)C2 | 116 to 119 °C
39 | COc1cc2c(cc1OC)C(c1ccc(N)cc1)=NN(C1=NNC(=O)CS1)C(C)C2 (racemic) [Example 154] | 159 to 163 °C
40 | CNC(=O)N1N=C(c2ccc(Cl)cc2)c2cc(OC)c(OC)cc2CC1C (stereo not shown) | 164 to 166 °C
41 | COc1cc2c(cc1OC)C(c1ccc(N)cc1)=NN(C(=O)N1CCCCC1)C(C)C2 (racemic) [Example 178] | 129 to 132 °C
42 | CNC(=O)N1N=C(c2cccc([N+](=O)[O-])c2)c2cc(OC)c(OC)cc2CC1C (stereo not shown) | 83 to 85 °C
43 | CONC(=O)N1N=C(c2ccc(N)cc2)c2cc(OC)c(OC)cc2C[C@H]1C [Example 135] | 143 to 145 °C
44 | COc1cc2c(cc1OC)C(c1ccc(N)cc1)=NN(C(=O)N(C)C)[C@H](C)C2 | 258 to 260 °C
45 | CCOc1cc2c(cc1OCC)C(c1ccc(N)cc1)=NN(c1ncon1)C(C)C2 (racemic) [Example 159] | 158 to 162 °C
46 | COc1cc2c(cc1OC)C(c1ccc(N)cc1)=NN(c1nc(C)n[nH]1)C(C)C2 (racemic) [Example 163] | 164 to 167 °C
47 | CNC(=O)N1N=C(c2cccc(N)c2)c2cc(OC)c(OC)cc2CC1C (racemic) | 103 to 108 °C
48 | COc1cc2c(cc1OC)C(c1ccc(N)cc1)=NN(c1nncs1)[C@@H](C)C2 [Example 109] | 160 to 162 °C
49 | COc1cc2c(cc1OC)C(c1ccc(N)c(C)c1)=NN(c1ncon1)[C@@H](C)C2 [Example 105] | 136 to 138 °C
50 | COc1cc2c(cc1OC)C(c1ccc(N)c(Cl)c1)=NN(c1nccs1)[C@H](C)C2 [Example 115] | 116 to 117 °C

Row | SMILES | melting point
51 | COc1cc2c(cc1OC)C(c1ccc(NC(C)=O)c(C)c1)=NN(c1nccs1)C(C)C2 (stereo not shown) [Example 182] | 209 to 211 °C
52 | CNC(=O)Nc1ccc(C2=NN(c3nncs3)C(C)Cc3cc(OC)c(OC)cc32)cc1 (stereo not shown) [Example 191] | 160 to 162 °C
53 | COc1cc2c(cc1OC)C(c1ccc(Cl)cc1)=NN(c1nncs1)C(C)C2 (stereo not shown) [Example 24] | 203 to 204 °C
54 | COc1cc2c(cc1OC)C(c1ccc([N+](=O)[O-])cc1)=NN(c1ncc(C)s1)C(C)C2 (stereo not shown) [Example 7] | 122 to 123 °C
55 | CCCNC(=O)N1N=C(c2ccc(N)c(C)c2)c2cc(OC)c(OC)cc2C[C@H]1C | 92 to 95 °C
56 | COc1cc2c(cc1OC)C(c1ccc(N)cc1)=NN(C(=O)NC1CC1)C(C)C2 (racemic) | 120 to 123 °C
57 | COc1cc2c(cc1OC)C(c1ccc(N)cc1)=NN(c1ncc(C)s1)C(C)C2 (racemic) [Example 138] | 120 to 122 °C
58 | COc1cc2c(cc1OC)C(c1ccc(N)c(C)c1)=NN(C1=NOCS1)[C@H](C)C2 [Example 118] | 194 to 197 °C
59 | COc1cc2c(cc1OC)C(c1ccc(N)cc1)=NN(C1=NCCS1)C(C)C2 (racemic) [Example 141] | 121 to 123 °C
60 | COc1cc2c(cc1OC)C(c1ccc(NC(C)=O)cc1)=NN(c1nc(C)c(C)s1)[C@H](C)C2 [Example 184] | 238 to 239 °C
61 | COc1cc2c(cc1OC)C(c1ccc(N)cc1)=NN(C1=NC(=O)C(C)S1)C(C)C2 (racemic) [Example 143] | 184 to 188 °C
62 | COc1cc2c(cc1OC)C(c1cccc(Cl)c1)=NN(c1nccs1)C(C)C2 (stereo not shown) [Example 10] | 125 to 126 °C
63 | COc1cc2c(cc1OC)C(c1ccc(N)cc1)=NN(C1=NC(=O)CS1)C(C)C2 (racemic) [Example 142] | 166 to 168 °C
64 | CNC(=O)N1N=C(c2cc(C)c([N+](=O)[O-])c(C)c2)c2cc(OC)c(OC)cc2CC1C (stereo not shown) [Example 77] | 158 to 160 °C
65 | COc1cc2c(cc1OC)C(c1ccc(N)cc1)=NN(c1nc(C)c(C)s1)[C@H](C)C2 [Example 113] | 122 to 124 °C
66 | CCOc1cc2c(cc1OCC)C(c1ccc([N+](=O)[O-])cc1)=NN(C(=O)NC)C(C)C2 (stereo not shown) [Example 93] | 188 to 189 °C
67 | COc1cc2c(cc1OC)C(c1ccccc1)=NN(C1=NOCS1)C(C)C2 (stereo not shown) [Example 37] | 170 to 173 °C
68 | COc1cc2c(cc1OC)C(c1ccc([N+](=O)[O-])cc1)=NN(c1ncon1)C(C)C2 (stereo not shown) [Example 40] | 213 to 214 °C
69 | CCNC(=O)N1N=C(c2ccc(N)c(C)c2)c2cc(OC)c(OC)cc2C[C@H]1C | 107 to 110 °C
70 | COc1cc2c(cc1OC)C(c1ccc(N)cc1)=NN(c1nc(C)cs1)C(C)C2 (racemic) [Example 137] | 122 to 124 °C
71 | CNC(=O)N1N=C(c2ccc([N+](=O)[O-])c(Cl)c2)c2cc(OC)c(OC)cc2CC1C (stereo not shown) [75] | 194 to 195 °C
72 | COc1cc2c(cc1OC)C(c1ccc([N+](=O)[O-])cc1)=NN(c1nccs1)C(C)C2 (stereo not shown) [Example 2] | 151 to 152 °C
73 | COc1cc2c(cc1OC)C(c1ccc(NC(C)=O)c(Cl)c1)=NN(c1nccs1)[C@H](C)C2 [Example 186] | 213 to 215 °C
